Our source for the IC50 and inhibition values is ChEMBL document CHEMBL1240344, “Phage-encoded combinatorial chemical libraries based on bicyclic peptides” (Nat Chem Biol, 2009).

One experiment concerns the target Plasma kallikrein (Homo sapiens, UniProt P03952). Put plainly: Inhibition of human plasma kallikrein using Z-Phe-Arg-AMC substrate after 30 mins by spectrophotometric assay.
Experiment [1] has as its target Prothrombin (Homo sapiens) (UniProt P00734). Kind of experiment: Inhibition of human thrombin at 10 uM using Boc-Phe-Ser-Arg-AMC substrate after 30 mins by spectrophotometric assay.
Experiment [2] has as its target Plasma kallikrein (Mus musculus) (UniProt P26262). Kind of experiment: Inhibition of mouse plasma kallikrein at 10 uM using Z-Phe-Arg-AMC substrate after 30 mins by spectrophotometric assay. It is filed as cell-free.
Experiment [3] addresses Coagulation factor XI (Homo sapiens) (UniProt P03951). Put plainly: Inhibition of human factor 11a at 10 uM using Z-Phe-Arg-AMC substrate after 30 mins by spectrophotometric assay.

Calls of active or inactive are those of the source. The rule behind the calls is not given here. Starred links: 1 amine or outer side, 2 acyl side, 3 side chain; linkers in the order of their positions; H or OH if unused. Positions of bridges follow the written chain, without caps; N, C: chain ends. Residues, ends and D or L forms follow the SMILES beside them. TBMB = c1c(C[*:1])cc(C[*:3])cc1C[*:2] Some results are limits rather than exact numbers.

Plasma kallikrein (Mus musculus), sequence (P26262 20-390 limits assumed): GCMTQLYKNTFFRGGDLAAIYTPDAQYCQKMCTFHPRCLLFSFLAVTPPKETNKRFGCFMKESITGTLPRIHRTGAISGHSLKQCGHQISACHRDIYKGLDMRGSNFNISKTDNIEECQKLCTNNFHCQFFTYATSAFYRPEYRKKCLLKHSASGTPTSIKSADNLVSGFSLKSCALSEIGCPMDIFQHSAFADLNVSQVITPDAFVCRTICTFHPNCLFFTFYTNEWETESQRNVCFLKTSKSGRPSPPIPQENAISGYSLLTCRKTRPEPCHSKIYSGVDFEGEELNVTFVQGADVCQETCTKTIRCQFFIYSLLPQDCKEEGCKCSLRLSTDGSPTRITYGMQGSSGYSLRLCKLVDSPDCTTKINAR
Plasma kallikrein (Mus musculus), sequence (P26262 391-638 limits assumed): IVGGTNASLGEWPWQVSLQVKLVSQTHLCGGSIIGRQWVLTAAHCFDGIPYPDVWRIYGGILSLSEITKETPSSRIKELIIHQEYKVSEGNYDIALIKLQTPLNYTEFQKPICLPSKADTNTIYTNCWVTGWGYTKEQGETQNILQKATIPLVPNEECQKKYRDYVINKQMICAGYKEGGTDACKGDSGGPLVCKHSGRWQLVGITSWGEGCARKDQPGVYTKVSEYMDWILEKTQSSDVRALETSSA
Coagulation factor XI (Homo sapiens), sequence (P03951 19-387 limits assumed): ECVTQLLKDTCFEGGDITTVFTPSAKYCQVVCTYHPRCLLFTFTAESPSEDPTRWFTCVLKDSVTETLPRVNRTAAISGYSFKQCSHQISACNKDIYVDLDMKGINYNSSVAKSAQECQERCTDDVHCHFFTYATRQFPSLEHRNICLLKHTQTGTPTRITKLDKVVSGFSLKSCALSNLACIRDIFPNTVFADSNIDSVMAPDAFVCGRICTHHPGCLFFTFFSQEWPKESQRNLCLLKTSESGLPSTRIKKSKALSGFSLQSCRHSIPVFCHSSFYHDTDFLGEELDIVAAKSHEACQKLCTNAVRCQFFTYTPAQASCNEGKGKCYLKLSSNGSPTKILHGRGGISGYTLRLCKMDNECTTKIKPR
Coagulation factor XI (Homo sapiens), sequence (P03951 388-625 limits assumed): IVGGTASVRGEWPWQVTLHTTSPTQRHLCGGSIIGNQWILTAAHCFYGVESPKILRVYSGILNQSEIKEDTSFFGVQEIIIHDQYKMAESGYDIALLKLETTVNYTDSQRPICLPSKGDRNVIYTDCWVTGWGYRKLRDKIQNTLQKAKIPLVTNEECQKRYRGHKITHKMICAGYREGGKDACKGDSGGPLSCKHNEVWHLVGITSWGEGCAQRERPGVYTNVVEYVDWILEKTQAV
Plasma kallikrein, sequence (P03952 20-390 limits assumed): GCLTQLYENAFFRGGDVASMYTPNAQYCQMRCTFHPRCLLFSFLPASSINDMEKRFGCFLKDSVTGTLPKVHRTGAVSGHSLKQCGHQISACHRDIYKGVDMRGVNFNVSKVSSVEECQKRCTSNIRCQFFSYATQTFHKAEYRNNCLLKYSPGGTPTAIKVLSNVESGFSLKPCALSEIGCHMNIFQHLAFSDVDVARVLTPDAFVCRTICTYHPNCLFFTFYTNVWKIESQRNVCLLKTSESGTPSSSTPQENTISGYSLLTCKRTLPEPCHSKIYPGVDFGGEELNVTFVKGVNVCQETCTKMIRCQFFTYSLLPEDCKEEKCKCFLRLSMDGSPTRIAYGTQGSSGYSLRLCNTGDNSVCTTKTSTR
Plasma kallikrein, sequence (P03952 391-638 limits assumed): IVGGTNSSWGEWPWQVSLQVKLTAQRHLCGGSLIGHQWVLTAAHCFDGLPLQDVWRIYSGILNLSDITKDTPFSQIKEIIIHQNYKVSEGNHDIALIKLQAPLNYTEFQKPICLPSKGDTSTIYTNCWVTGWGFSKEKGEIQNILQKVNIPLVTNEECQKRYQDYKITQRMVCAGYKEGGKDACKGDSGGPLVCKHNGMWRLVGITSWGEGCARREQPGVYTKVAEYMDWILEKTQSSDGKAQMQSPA

As usually defined, the IC50 is the concentration that gives 50% inhibition. The low end stands for inhibition by little substance, the high end for a need for much substance. The molecule `CC(C)C[C@@H]1NC(=O)[C@@H]2CCCN2C(=O)[C@@H]2CSCc3cc(cc(c3)CSC[C@@H](C(=O)NCC(N)=O)NC(=O)[C@H](C(C)O)NC(=O)CNC(=O)[C@H](CO)NC(=O)[C@H](Cc3c[nH]c4ccccc34)NC1=O)CSC[C@H](NC(=O)[C@H](C)N)C(=O)N[C@@H](CO)C(=O)N[C@@H](CC(=O)O)C(=O)N[C@@H](CCCNC(=N)N)C(=O)N[C@@H](Cc1ccccc1)C(=O)N[C@@H](CCCNC(=N)N)C(=O)N[C@@H](CC(N)=O)C(=O)N2` (single isomer, unassigned) showed an IC50 against Plasma kallikrein of 28.6 nM. This lies in the double-digit nanomolar range.

On Plasma kallikrein, `CC(C)[C@@H]1NC(=O)[C@H](CCCNC(=N)N)NC(=O)[C@@H]2CSCc3cc(cc(c3)CSC[C@@H](C(=O)NCC(N)=O)NC(=O)[C@@H]3CCCN3C(=O)[C@H]([C@H](C)O)NC(=O)[C@H](Cc3c[nH]c4ccccc34)NC(=O)[C@H](CC(N)=O)NC1=O)CSC[C@H](NC(=O)[C@H](C)N)C(=O)NCC(=O)N[C@@H]([C@H](C)O)C(=O)NCC(=O)N[C@@H](CCC(=O)O)C(=O)NCC(=O)N[C@@H](CCCNC(=N)N)C(=O)N2` gave an IC50 of 39.1 nM.

Take `CSCC[C@H](NC(=O)[C@H](CC(C)C)NC(=O)[C@H](CC(=O)O)NC(=O)[C@H](CCC(=O)O)NC(=O)[C@H](Cc1ccc(O)cc1)NC(=O)[C@H](CS)NC(=O)[C@H](C)NC(=O)[C@@H](NC(=O)[C@H](CCCNC(=N)N)NC(=O)[C@H](Cc1c[nH]c2ccccc12)NC(=O)[C@@H]1CCCN1C(=O)[C@H](C)NC(=O)[C@H](CS)NC(=O)[C@H](C)N)[C@@H](C)O)C(=O)N[C@@H](Cc1c[nH]c2ccccc12)C(=O)N[C@@H](CS)C(=O)NCC(N)=O` (H-ACAPWRTACYEDLMWCG-NH2): the inhibition result in experiment [1], in experiment [2] and in experiment [3] was “inactive” in each case.

In the case of `CC(C)C[C@@H]1NC(=O)[C@H](C)NC(=O)[C@H](CCC(=O)O)NC(=O)[C@H](CC(=O)O)NC(=O)[C@H](C(C)C)NC(=O)[C@@H]2CCCN2C(=O)[C@@H]2CSCc3cc(cc(c3)CSC[C@@H](C(=O)NCC(N)=O)NC1=O)CSC[C@H](NC(=O)[C@H](C)N)C(=O)N[C@@H](CO)C(=O)N[C@@H](CC(=O)O)C(=O)N[C@@H](CCCNC(=N)N)C(=O)N[C@@H](Cc1ccccc1)C(=O)N[C@@H](CCCNC(=N)N)C(=O)N[C@@H](CC(N)=O)C(=O)N2` (H-ACSDRFRNCPVDEALCG-NH2; linker 2-9-16 via TBMB), the IC50 on Plasma kallikrein amounted to 20 nM.

As for `CC(C)[C@H](NC(=O)[C@H](CCCNC(=N)N)NC(=O)[C@H](CS)NC(=O)[C@H](CCCNC(=N)N)NC(=O)CNC(=O)[C@H](CCC(=O)O)NC(=O)CNC(=O)[C@@H](NC(=O)CNC(=O)[C@H](CS)NC(=O)[C@@H](C)N)[C@H](C)O)C(=O)N[C@@H](CC(N)=O)C(=O)N[C@@H](Cc1c[nH]c2ccccc12)C(=O)N[C@H](C(=O)N1CCC[C@H]1C(=O)N[C@@H](CS)C(=O)NCC(N)=O)[C@@H](C)O`, the inhibition entry in experiment [1], in experiment [2] and in experiment [3] was “inactive” each time.

As to `CC(C)C[C@@H]1NC(=O)[C@H](Cc2c[nH]c3ccccc23)NC(=O)[C@H](CCC(=O)O)NC(=O)[C@H](CC(=O)O)NC(=O)[C@H](C(C)C)NC(=O)[C@@H]2CCCN2C(=O)[C@@H]2CSCc3cc(cc(c3)CSC[C@@H](C(=O)NCC(N)=O)NC1=O)CSC[C@H](NC(=O)[C@H](C)N)C(=O)N[C@@H](CO)C(=O)N[C@@H](CC(=O)O)C(=O)N[C@@H](CCCNC(=N)N)C(=O)N[C@@H](Cc1ccccc1)C(=O)N[C@@H](CCCNC(=N)N)C(=O)N[C@@H](CC(N)=O)C(=O)N2` (H-ACSDRFRNCPVDEWLCG-NH2; linker 2-9-16 via TBMB), the IC50 against Plasma kallikrein was found to be 30 nM.

For `CC(C)C[C@H](NC(=O)[C@@H]1CCCN1C(=O)[C@H](CS)NC(=O)[C@H](CC(N)=O)NC(=O)[C@H](CCCNC(=N)N)NC(=O)[C@H](Cc1ccccc1)NC(=O)[C@H](CCCNC(=N)N)NC(=O)[C@H](CC(=O)O)NC(=O)[C@H](CO)NC(=O)[C@H](CS)NC(=O)[C@H](C)N)C(=O)N[C@@H](Cc1c[nH]c2ccccc12)C(=O)N[C@@H](CO)C(=O)NCC(=O)N[C@H](C(=O)N[C@@H](CS)C(=O)NCC(N)=O)[C@@H](C)O` (H-ACSDRFRNCPLWSGTCG-NH2), the inhibition entry in experiment [1], in experiment [2] and in experiment [3] was “inactive” in each case. In addition, the IC50 against Plasma kallikrein was above 10000 nM.

Consider `CSCC[C@@H]1NC(=O)[C@H](CO)NC(=O)[C@H](Cc2c[nH]c3ccccc23)NC(=O)[C@@H]2CCCN2C(=O)[C@@H]2CSCc3cc(cc(c3)CSC[C@H](NC(=O)[C@H](C)N)C(=O)N[C@@H](CC(=O)O)C(=O)N[C@@H](CO)C(=O)N[C@@H](CCCNC(=N)N)C(=O)N[C@@H](Cc3ccccc3)C(=O)N[C@@H](CCCNC(=N)N)C(=O)N[C@@H](CC(N)=O)C(=O)N2)CSC[C@@H](C(=O)NCC(N)=O)NC(=O)CNC(=O)[C@H](CO)NC1=O` (H-ACDSRFRNCPWSMSGCG-NH2; linker 2-9-16 via TBMB), for which the IC50 on Plasma kallikrein is 1500 nM.

Take `CSCC[C@H](NC(=O)[C@H](CC(C)C)NC(=O)[C@H](CC(=O)O)NC(=O)[C@H](CCC(=O)O)NC(=O)[C@H](Cc1ccc(O)cc1)NC(=O)[C@H](CS)NC(=O)[C@H](C)NC(=O)[C@@H](NC(=O)[C@H](CCCN=C(N)N)NC(=O)[C@H](Cc1c[nH]c2ccccc12)NC(=O)[C@@H]1CCCN1C(=O)[C@H](C)NC(=O)[C@H](CS)NC(=O)[C@H](C)N)[C@@H](C)O)C(=O)N[C@@H](Cc1c[nH]c2ccccc12)C(=O)N[C@@H](CS)C(=O)NCC(N)=O` (H-ACAPWRTACYEDLMWCG-NH2): half-maximal inhibition against Plasma kallikrein (IC50) required 5710 nM.

In turn, `CC(C)[C@@H]1NC(=O)[C@@H](NC(=O)[C@H](C)N)CSCc2cc3cc(c2)CSC[C@@H](C(=O)NCC(N)=O)NC(=O)[C@H](C(C)O)NC(=O)[C@H](C(C)C)NC(=O)[C@H](Cc2c[nH]c4ccccc24)NC(=O)[C@H](CC(N)=O)NC(=O)[C@H](C(C)C)NC(=O)[C@H](CCCNC(=N)N)NC(=O)[C@H](CSC3)NC(=O)[C@H](Cc2ccc(O)cc2)NC(=O)[C@H](CC(N)=O)NC(=O)[C@H](Cc2cnc[nH]2)NC1=O` (single isomer, unassigned) displayed an IC50 against Plasma kallikrein of 1800 nM.

As for `CC[C@H](C)[C@@H]1NC(=O)[C@H](CCC(=O)O)NC(=O)[C@H]([C@@H](C)CC)NC(=O)[C@@H]2CCCN2C(=O)[C@@H]2CSCc3cc(cc(c3)CSC[C@@H](C(=O)NCC(N)=O)NC(=O)[C@@H]3CCCN3C(=O)[C@H](Cc3ccccc3)NC1=O)CSC[C@H](NC(=O)[C@H](C)N)C(=O)N[C@@H](CO)C(=O)N[C@@H]([C@H](C)O)C(=O)N[C@@H](CCC(=O)O)C(=O)N[C@@H](CCCNC(=N)N)C(=O)N[C@@H](CCCNC(=N)N)C(=O)N[C@@H](Cc1ccc(O)cc1)C(=O)N2`, half-maximal inhibition at Plasma kallikrein (IC50) required 33 nM.

On to `CC(C)[C@@H]1NC(=O)[C@H](CCCNC(=N)N)NC(=O)[C@@H]2CSCc3cc(cc(c3)CSC[C@@H](C(=O)NCC(N)=O)NC(=O)[C@H](CCCCN)NC(=O)CNC(=O)[C@H](Cc3ccccc3)NC(=O)[C@H](CC(N)=O)NC1=O)CSC[C@H](NC(=O)[C@H](C)N)C(=O)N[C@@H](Cc1c[nH]c3ccccc13)C(=O)N[C@@H](CCC(N)=O)C(=O)N[C@@H](C(C)C)C(=O)N[C@@H](CCC(N)=O)C(=O)N[C@@H](C(C)C)C(=O)N[C@@H](CC(N)=O)C(=O)N2` (H-ACWQVQVNCRVNFGKCG-NH2; linker 2-9-16 via TBMB), for which the IC50 at Plasma kallikrein came to 800 nM.

Take `CC[C@H](C)[C@@H]1NC(=O)[C@H](CC(N)=O)NC(=O)[C@H](CC(N)=O)NC(=O)[C@H](C(C)C)NC(=O)[C@H](CCCNC(=N)N)NC(=O)[C@@H]2CSCc3cc(cc(c3)CSC[C@@H](C(=O)NCC(N)=O)NC(=O)[C@H](CO)NC1=O)CSC[C@H](NC(=O)[C@H](C)N)C(=O)NCC(=O)NCC(=O)N[C@@H](CC(N)=O)C(=O)N[C@@H](CO)C(=O)N[C@@H](CC(=O)O)C(=O)N[C@@H](CCCNC(=N)N)C(=O)N2` (H-ACGGNSDRCRVNNISCG-NH2; linker 2-9-16 via TBMB): at Plasma kallikrein, it took 2000 nM to reach half-maximal inhibition (IC50).

In turn, `CC(C)C[C@@H]1NC(=O)[C@H]([C@@H](C)O)NC(=O)[C@H](Cc2ccc(O)cc2)NC(=O)[C@@H]2CCCN2C(=O)[C@@H]2CSCc3cc(cc(c3)CSC[C@@H](C(=O)NCC(N)=O)NC(=O)[C@H](CC(=O)O)NC(=O)[C@H](Cc3cnc[nH]3)NC1=O)CSC[C@H](NC(=O)[C@H](C)N)C(=O)N[C@@H](CO)C(=O)N[C@@H](CC(=O)O)C(=O)N[C@@H](CCCNC(=N)N)C(=O)N[C@@H](Cc1ccccc1)C(=O)N[C@@H](CCCNC(=N)N)C(=O)N[C@@H](CC(N)=O)C(=O)N2` (H-ACSDRFRNCPYTLHDCG-NH2; linker 2-9-16 via TBMB) had an IC50 on Plasma kallikrein of 30 nM.

On to `CC(C)[C@H](NC(=O)[C@H](CCCN=C(N)N)NC(=O)[C@H](CS)NC(=O)[C@H](CCCN=C(N)N)NC(=O)CNC(=O)[C@H](CCC(=O)O)NC(=O)CNC(=O)[C@@H](NC(=O)CNC(=O)[C@H](CS)NC(=O)[C@H](C)N)[C@@H](C)O)C(=O)N[C@@H](CC(N)=O)C(=O)N[C@@H](Cc1c[nH]c2ccccc12)C(=O)N[C@H](C(=O)N1CCC[C@H]1C(=O)N[C@@H](CS)C(=O)NCC(N)=O)[C@@H](C)O`, for which, at Plasma kallikrein, the IC50 was above 10000 nM.

`CC(C)[C@@H]1NC(=O)[C@@H]2CCCN2C(=O)[C@@H]2CSCc3cc(cc(c3)CSC[C@@H](C(=O)NCC(N)=O)NC(=O)[C@H](C)NC(=O)[C@H](CO)NC(=O)[C@H](CCC(=O)O)NC(=O)[C@H](CO)NC1=O)CSC[C@H](NC(=O)[C@H](C)N)C(=O)N[C@@H](CO)C(=O)N[C@@H](CC(=O)O)C(=O)N[C@@H](CCCNC(=N)N)C(=O)N[C@@H](Cc1ccccc1)C(=O)N[C@@H](CCCNC(=N)N)C(=O)N[C@@H](CC(N)=O)C(=O)N2` (H-ACSDRFRNCPVSESACG-NH2; linker 2-9-16 via TBMB) came in with an IC50 at Plasma kallikrein of 50 nM.
